# According to paper PMC11990103, “Anticancer Activity and Safety Profile of Novel 1-(4-Fluorophenoxyacetyl)-4-substituted Thio/Semicarbazide Derivatives” (Molecules, 2025):
# Tests used:
# Format in all cases: cell-based, human
# [1] = tested on: G-361 melanoma cells; assay: Apoptosis detection, annexin V and propidium iodide; conditions: G-361, 48 h, concentration approximate to IC50
# Protocol: (§1) To further evaluate the anticancer activity of thiosemicarbazide derivative AB2 in G-361 and LNCaP cell lines, cell cycle analysis by image cytometry and detection of apoptosis using annexin V and propidium iodide was performed. Analyses of the action of AB2 on the distribution of cells in different phases of the cell cycle indicated a significant increase in the population of cells in the sub-G1 phase compared to the control cultures, in both tested prostate and melanoma cells. This population increased from 7% and 5% in control cells to 26% and 27% after exposure to AB2 in LNCaP and G-361 cells, respectively (Figure 8A). The increase in the cell population in the sub-G1 phase indicates the presence of apoptosis or necrosis in the investigated cells and not a significant inhibition of cell proliferation, i.e., a cytostatic effect.
# (§2) In prostate cancer cells, the percentage of early apoptotic cells substantially elevated after AB2 treatment compared with the control group, indicating the initial activation of the apoptotic pathway. […] The percentage of cells in the early phase of apoptosis is approximately 36% and 28% in LNCaP and G-361 cells, respectively (Figure 8B). At the same time, the population of cells in late apoptosis increased in both cell lines, implying a progression of the apoptotic process after AB2 exposure. […]
# [2] = tested on: LNCaP prostate cancer cells; assay: as above; conditions: 48 h, concentration approximate to IC50
# Protocol: as §1, §2
# [3] = tested on: PC-3 prostate cancer cell line; assay: MTT cytotoxicity assay; conditions: 48 h treatment
# Protocol: (§3) These cancer cell lines comprised prostate cancer (PC-3, DU-145, LNCaP), melanoma (SK-MEL28, A375, G-361), breast cancer (MCF-7, MDA-MB-231), and lung cancer (NCI-H1563). The MTT assay was carried out across a wide range of concentrations for 48 h.
# (§4) The research was conducted on one primary cell line: BJ (fibroblast) and four types of cancerous ones: three prostate cancer cell lines (PC-3, DU-145, LNCaP); 3 Melanoma cell lines (MEL-28, A375, G-361); 2 breast cancer cell lines (MCF-7, MDA-MB-23) and one lung cancer cell line (NCI-H1563). All cell lines were obtained from the American Type Culture Collection (ATCC, Manassas, VA, USA) and were grown in media (Corning, New York, NY, USA) according to ATCC guidelines. The culture media was enriched with 10% heat-inactivated fetal bovine serum (Life Technologies, Carlsbad, CA, USA) and antibiotics: penicillin (100 units) and streptomycin (100 μg/mL) from Sigma-Aldrich (St. Louis, MO, USA). The cells were incubated at 37 °C with 5% CO2 in air.
# (§5) The cytotoxic analysis of thiosemicarbazides (TSC) (AB1–AB6) and semicarbazides (SC) (AB7–AB12) was conducted in various concentrations. […] The cells were treated with compounds or DMSO as a vehicle in control cultures for 48h. IC50 values were determined using the AAT Bioquest IC50 calculator (AAT Bioquest, Inc., Pleasanton, CA, USA, Quest Graph™ EC50 Calculator. https://www.aatbio.com/tools/ec50-calculator) (accessed on 7 October 2024).
# (§6) The cytotoxic activity of the thiosemicarbazides and semicarbazides was measured using the MTT colorimetric assay (MTT Cell Proliferation Assay Kit—Invitrogen, Waltham, MA, USA). The cells were seeded in the 96-well plates at a density of 1.5 × 10^5 cells/mL. After reaching 70–80% of confluence, the tested compounds in a wide range of concentrations were added. Plates were incubated for 48 h at 37 °C in 5% CO2 air. Then, […] tetrazolium salt (3-(4,5-dimethylthiazol-2-yl)-2,5-diphenyltetrazolium bromide)—MTT reagent (0.5 mg/mL) dissolved in PBS was added to each well for 4 h. The MTT solution was then removed from above the water-insoluble purple formazan crystals, which were then dissolved in DMSO (dimethyl sulfoxide, […]; POCH, Gliwice, Poland). The absorbance value of obtained solutions was measured using a PowerWave ™ microplate spectrophotometer (Bio-Tek Instruments, Winooski, VT, USA) at a wavelength of 570 nm. Each cytotoxicity assay was repeated three times in triplicates.
# [4] = tested on: G-361 melanoma cell line; assay: MTT cytotoxicity assay
# Protocol: as §3, §4, §5, §6
# [5] = tested on: LNCaP prostate cancer cell line; assay: MTT cytotoxicity assay
# Protocol: as §3, §4, §5, §6
# [6] = tested on: DU-145 prostate cancer cell line; assay: MTT cytotoxicity assay; conditions: 48 h treatment
# Protocol: as §3, §4, §5, §6
# [7] = tested on: MDA-MB-231 breast cancer cell line; assay: MTT cytotoxicity assay; conditions: 48 h treatment
# Protocol: as §3, §4, §5, §6
# [8] = tested on: A375 melanoma cell line; assay: MTT cytotoxicity assay; conditions: 48 h treatment
# Protocol: as §3, §4, §5, §6
# [9] = tested on: MCF-7 breast cancer cell line; assay: MTT cytotoxicity assay; conditions: 48 h treatment
# Protocol: as §3, §4, §5, §6
# [10] = tested on: NCI-H1563 lung cancer cell line; assay: MTT cytotoxicity assay; conditions: 48 h treatment
# Protocol: as §3, §4, §5, §6
# [11] = tested on: SK-MEL28 melanoma cell line; assay: MTT cytotoxicity assay; conditions: 48 h treatment
# Protocol: as §3, §4, §5, §6
structure (smiles),measurement,setting,value
O=C(COc1ccc(F)cc1)NNC(=S)Nc1ccccc1Cl [AB2],early apoptotic cells (Q1lr),[1],~28%
same,late apoptotic cells (Q1ur),[2],37%
same,IC50,[3],> 500 µM
same,"selectivity index (SI), G-361",[4]; IC50 normal cells (BJ) divided by IC50 G-361,2.04
same,IC50,"[4]; MTT, 48 h treatment",223 µM
same,"selectivity index (SI), LNCaP",[5]; IC50 normal cells (BJ) divided by IC50 LNCaP,4.19
same,IC50,"[5]; MTT, 48 h treatment",108 µM
same,IC50,[6],> 500 µM
same,IC50,[7],> 500 µM
same,IC50,[8],429 µM
same,IC50,[9],> 500 µM
same,IC50,[10],> 500 µM
same,IC50,[11],470 µM
